Laboratory results: article PMC8224453, “A New PqsR Inverse Agonist Potentiates Tobramycin Efficacy to Eradicate Pseudomonas aeruginosa Biofilms” (Advanced Science, 2021)
≈ marks a conversion by molar mass, not a printed value. Where two headings read alike, the source gives them in different places.

How the values were obtained:
[1] = Kinetic turbidimetric solubility assay; assay type: physicochemical; conditions: PBS; for solubility kinetic at 5 min: aqueous buffer, kinetic from dmso stock, read-out: Kinetic solubility S kin
Method: 5.4. Kinetic Turbidimetric Solubility Assay
The desired compounds were sequentially diluted in DMSO in a 96-well plate. A 3 µL of each well were transferred into another three 96-well plates, followed by addition of 147 µL of PBS. Plates were shaken for 5 min at 600 rpm at room temperature (r.t.), and the absorbance at 620 nm was measured. Absorbance values were normalized by blank […]
subtraction and plotted using GraphPad Prism 8.4.2 (GraphPad Software, San Diego, CA, […]

[2] = tested on: alkylquinolones PQS and HHQ in P. aeruginosa PA14; test: Alkylquinolone inhibition assay in PA14; assay type: cell-based; conditions: Pseudomonas aeruginosa
Method: 4. Secondary Activity Assays
4.1. Alkylquinolone Inhibition Assay
The inhibitory effect of the synthesized compounds on alkylquinolone production in PA was measured as previously described with the modification that wt PA14 was used instead of PA14pqsH.[6] Briefly, P. aeruginosa PA14 cultures were grown in the presence of DMSO as a control or DMSO solutions of inhibitors for 17 h. HHQ and PQS as well as HQNO were quantified from ethyl acetate extracts using 5,6,7,8-tetradeutero-2-heptyl-4(1H)-quinolone (HHQ-d4) as internal standard (IS). LC-ESI-MS/MS analysis was performed on a Dionex […]
(1 picture or pasted object on this page, not shown here)
Scientific, Waltham MA) with the following conditions: Zorbax Eclipse XDB 80 Å C18 5 µm 4.6 x 50 mm column (Agilent, Santa Clara, CA, USA); eluent A – H2O with 0.1% trifluoroacetic acid (TFA), 0.1% pentafluoropropionic acid (PFPA), 0.1% heptafluorobutyric acid (HFBA); eluent B – acetonitrile with 0.1% TFA, 0.1% PFPA, 0.1% HFBA; isocratic 50% A; flow – 0.7 mL/min. TSQ Quantum Access Max (Thermo Fisher Scientific, Waltham, MA, USA) instrument parameters: Spray voltage 3500 V, vaporizer temperature 370 °C, sheath gas pressure 35 psi, aux gas pressure 30 psi, capillary temperature 270 °C, collision pressure 1.5 mTorr, positive ionization mode. For AQ analyte reaction monitoring parameters […]
Data acquisition and quantification was performed using Xcalibur software with the use of a calibration curve relative to the area of the IS. IC50 values were calculated according to the procedure of the pyocyanin assay (see above).
Table S1: LC-ESI-MS/MS reaction monitoring parameters of AQ analytes in positive ionization mode. precursor product collision tube lens retention ion m/z ion m/z energy (V) offset (V) time (min)
Chemical and biological materials for in vitro assays: All chemicals were purchased from Sigma-Aldrich unless otherwise specified. Yeast extract was obtained from Fluka. Bacto™ Tryptone were obtained from BD Biosciences. Luria Bertani (LB) agar was obtained from Carl Roth. Gibco® PBS was obtained from Life Te chnologies. Purified water was prepared by a Milli-Q water purification system (Merk Millipore, Billerica, MA). The PA strain PA14 wild type (PA14 wt) was purchased from DSMZ, the German Collection of Microorganism and Cell Cultures GmbH (PA14 = DSMZ19882) and cultured in minimal proteose peptone glucose ammonium salt (PPGAS) medium. PPGAS was composed of 1 g/L NH4Cl, 1.5 g/L KCl, 19 g/L Tris-HCl, 10 g/L peptone, 5 g/L glucose and 0.1 g/L MgSO4∙7H2O. The pH value of the medium was adjusted to 7.2 ± 0.2 and sterilized before use. Agar solution was […]

planktonic PA14 wt = test: MIC assay, microbroth dilution; assay type: cell-based; conditions: Pseudomonas aeruginosa
Method: composed of 15.5 g/L LB agar, 10 g/L peptone, 5 g/L NaCl and 5 g/L yeast extract, the resulting solution was sterilized before being plated.
The minimum inhibitory concentration […] of drug-free SqNPs, compound 4 prepared either in dimethyl sulfoxide (DMSO) or loaded in SqNPs, free Tob, Tob-loaded SqNPs, and Tob and compound 4 co-loaded SqNPs against planktonic PA14 wt were determined by standard microbroth dilution assays in 96-well plates. PA14 wt suspension was prepared from mid-log cultures in PPGAS medium and diluted to OD600 (absorption at 600 nm) 0.02 (2∙10^7 CFU/mL (CFU, colony-forming units)). PBS served as a control. Following 16 h incubation […]
nm) that were measured using a Tecan microplate reader Infinite M200Pro (Tecan, Crailsheim, Germany). The IC90 values are concentrations at which the growth of bacteria is inhibited by 90%. Three independent experiments were conducted in triplicate. Results are […]
Table S2. MIC assay against PA14 wt. Three independent experiments were conducted in triplicate.
Samples MIC (IC90 value) against PA14 wt
Drug-free SqNPs > 200 µg/mL
Compound (4) prepared in DMSO > 20 µM
Compound (4)-loaded SqNPs > 20 µM (a)
Tob loaded SqNPs 3.125 – 6.25 µg/mL (b)
Tob and compound (4) co-loaded SqNPs 3.125 – 6.25 µg/mL (b)
((4) concentration 20 µM)
(a) Compound (4) concentration
4.3. Minimum Biofilm Eradicating Concentration (MBEC) assay
Chemical and biological materials for in vitro assays. All chemicals were purchased from Sigma-Aldrich unless otherwise specified. Yeast extract was obtained from Fluka. Bacto™ Tryptone were obtained from BD Biosciences. Luria Bertani (LB) agar was obtained from Carl Roth. Gibco® PBS was obtained from Life Technologies. Purified water was prepared by a Milli-Q water purification system (Merk Millipore, Billerica, MA). The PA strain PA14

SMILES | solubility kinetic at 5 min [1] [µM] | IC50 ([2]; PA14, read-out: IC50(HHQ)) [nM] | IC50 ([2]; PA14, read-out: IC50(PQS)) [nM] | MIC (planktonic PA14 wt; PA14, compound (4) concentration, 16 h, read-out: MIC (IC90 value) against PA14 wt) [µM] | Kinetic solubility S kin [1] [µM] | MIC (planktonic PA14 wt; PA14, Tob concentration, 16 h, read-out: MIC (IC90 value) against PA14 wt) [µg/mL] | MIC (planktonic PA14 wt; PA14 wt, read-out: MIC in the planktonic setting) [µg/mL]
FC(F)(F)c1cc(NCc2cn(-c3ccc(Oc4ccccc4)cc3)nn2)ccn1 [Compound 4] | 7.7 (≈ 3.17 µg/mL) | 370 ± 70 | 1130 | > 20 |  |  | 
COc1ccc(-n2cc(CNc3ccnc(C(F)(F)F)c3)nn2)cc1Cl [Compound 17] | 64 (≈ 24.6 µg/mL) | 1320 ± 390 | 2080 ± 370 |  | 64.1 |  | 
NC[C@H]1O[C@H](O[C@H]2[C@H](O)[C@@H](O[C@H]3O[C@H](CO)[C@@H](O)[C@H](N)[C@H]3O)[C@H](N)C[C@@H]2N)[C@H](N)C[C@@H]1O [Tobramycin, tobramycin] |  |  |  |  |  | 3.12 to 6.25 | 3.12 to 6.25
